In article PMC8400246, “Antimicrobial Activity and Action Mechanisms of Arg-Rich Short Analog Peptides Designed from the C-Terminal Loop Region of American Oyster Defensin (AOD)” (Marine Drugs, 2021):
Positions of bridges follow the written chain, without caps; N, C: chain ends. Residues, ends and D or L forms follow the SMILES beside them.

How the values were obtained:
[1] = test system: P. aeruginosa KCTC2004; assay: Ultrasensitive radial diffusion assay (URDA), MEC; format: cell-based, Pseudomonas aeruginosa; conditions: P. aeruginosa KCTC2004, Gram -, pH 6.6, 37 °C, triplicate, averaged
Description: (§1) The antimicrobial activity of the AOD analogs was assessed with an ultrasensitive radial diffusion assay (URDA), as described previously. The antimicrobial activity of the analogs (from 31.3 to 1000 μg/mL, 5 μL volume) was tested against several bacteria, including Bacillus subtilis KCTC1021, Streptococcus mutans KCCM40105, Aeromonas hydrophila KCTC2358, Escherichia coli D31, E. coli ML35p, Pseudomonas aeruginosa KCTC2004, Salmonella enterica KCTC2514, and Shigella sonnei KCTC2009. In addition, Cutibacterium acnes KCTC3314, Staphylococcus epidermidis KCTC1917, and Candida albicans KCTC7965 were used for the anti-acne activity test. All except C. acnes KCTC3314 were grown overnight for 18 h in tryptic soy broth (TSB; for bacteria) or Sabouraud dextrose broth (SDB; for C. albicans) at the appropriate temperature (25 °C for A. hydrophila, 37 °C for the others). C. acnes was grown for 72 h in reinforced clostridial medium (RCM) under anaerobic conditions with an anaerobic gas-generating pouch (GasPak EZ; Becton Dickinson and Company, Sparks, MD, USA) at 37 °C. Following overnight or 72-h incubation, the bacterial and C. albicans suspensions were diluted to a McFarland turbidity standard level of 0.5 (Vitek Colorimeter #52-1210; Hach, Loveland, CO, USA) corresponding to approximately 10^8 colony forming units (CFU)/mL for bacteria and 10^6 CFU/mL for C. albicans. Diluted bacterial or C. albicans suspension (0.5 mL) was added to 9.5 mL underlay gel containing 5 × 10^6 or 5 × 10^4 CFU/mL in 10 mM phosphate buffer (pH 6.6) with 0.03% TSB (or RCM) or 0.03% SDB and 1% Type I low-electroendosmosis agarose. The AOD analogs were serially diluted two-fold in 5 µL acidified water (0.01% acetic acid; HAc) and each dilution was added to 2.5-mm diameter wells in the 1-mm thick underlay gel. After incubation for 3 h at either 25 °C (for A. hydrophila) or 37 °C (for the others), the bacterial or yeast suspension was overlaid with 10 mL double-strength overlay gel containing 6% TSB, RCM, or SDB with 10 mM phosphate buffer (pH 6.6) in 1% agarose. Plates were incubated for an additional 18–24 h (72 h for C. acnes) and the clearing zone diameters were measured. After subtracting the diameter of the well (2.5 mm), the clearing zone diameter was expressed in units (0.1 mm = 1 U).
(§2) The minimal effective concentration (MEC; μg/mL) of the AOD analogs was calculated as the X-intercept of a plot of clearing zone diameter units against the log10 of the peptide concentration. Piscidin 1, an α-helical AMP isolated from hybrid striped bass (Morone saxatilis × Morone chrysops) was used as a positive control.

[2] = test system: C. acnes KCTC3314; assay: Ultrasensitive radial diffusion assay (URDA), MEC; format: cell-based, Cutibacterium acnes; conditions: C. acnes KCTC3314, Gram +, anaerobic, RCM, 72 h, 37 °C, triplicate, averaged
Description: as §1, §2

[3] = test system: A. hydrophila KCTC2358; assay: Ultrasensitive radial diffusion assay (URDA), MEC; format: cell-based, Aeromonas hydrophila; conditions: A. hydrophila KCTC2358, Gram -, pH 6.6, 25 °C, triplicate, averaged
Description: as §1, §2

[4] = test system: E. coli D31; assay: Ultrasensitive radial diffusion assay (URDA), MEC; format: cell-based, Escherichia coli; conditions: E. coli D31, Gram -, pH 6.6, 37 °C, triplicate, averaged
Description: as §1, §2

[5] = test system: E. coli ML35p; assay: Ultrasensitive radial diffusion assay (URDA), MEC; format: cell-based, Escherichia coli; conditions: Gram -, pH 6.6, 37 °C, triplicate, averaged
Description: as §1, §2

[6] = test system: S. mutans KCCM40105; assay: Ultrasensitive radial diffusion assay (URDA), MEC; format: cell-based, Streptococcus mutans; conditions: S. mutans KCCM40105, Gram +, pH 6.6, 37 °C, triplicate, averaged
Description: as §1, §2

[7] = test system: B. subtilis KCTC1021; assay: Ultrasensitive radial diffusion assay (URDA), MEC; format: cell-based, Bacillus subtilis; conditions: B. subtilis KCTC1021, Gram +, 10 mM phosphate buffer pH 6.6, 37 °C, X-intercept of clearing zone vs log10 concentration, triplicate, averaged
Description: as §1, §2

[8] = test system: C. albicans KCTC7965; assay: Ultrasensitive radial diffusion assay (URDA), MEC; format: cell-based, Candida albicans; conditions: C. albicans KCTC7965, yeast, SDB, pH 6.6, 37 °C, triplicate, averaged
Description: as §1, §2

[9] = test system: V. parahaemolyticus gDNA; assay: Bacterial gDNA binding (electrophoretic mobility shift); set-up: species or system Vibrio parahaemolyticus; conditions: 1 μg of analog with V. parahaemolyticus gDNA, agarose gel
Description: To evaluate the binding ability of the AOD analogs to intracellular components, a DNA binding assay was performed as previously described with minor modifications. The DNA-binding ability of the AOD analogs was assessed through observation of the inhibition of migration of DNA bands through agarose gels. […] HAc (0.01%) was used as a negative control.

[10] = test system: S. enterica KCTC2514; assay: Ultrasensitive radial diffusion assay (URDA), MEC; format: cell-based, Salmonella enterica; conditions: S. enterica KCTC2514, Gram -, pH 6.6, 37 °C, triplicate, averaged
Description: as §1, §2

[11] = test system: S. sonnei KCTC2009; assay: Ultrasensitive radial diffusion assay (URDA), MEC; format: cell-based, Shigella sonnei; conditions: S. sonnei KCTC2009, Gram -, pH 6.6, 37 °C, triplicate, averaged
Description: as §1, §2

[12] = test system: S. epidermidis KCTC1917; assay: Ultrasensitive radial diffusion assay (URDA), MEC; format: cell-based, Staphylococcus epidermidis; conditions: S. epidermidis KCTC1917, Gram +, pH 6.6, 37 °C, triplicate, averaged
Description: as §1, §2

[13] = test system: 100-bp DNA ladder; assay: DNA binding assay (electrophoretic mobility shift); conditions: 1 μg analog with 0.2 μg 100-bp DNA ladder, 37 °C, 60 min, 1.8% agarose gel with EtBr
Description: To evaluate the binding ability of the AOD analogs to intracellular components, a DNA binding assay was performed as previously described with minor modifications. The DNA-binding ability of the AOD analogs was assessed through observation of the inhibition of migration of DNA bands through agarose gels. A commercial 100-bp DNA ladder (0.2 μg) (Bioneer Corp., Daejeon, South Korea) was mixed with each analog (1 μg) in 0.01% acetic acid, and the resulting mixture was incubated at 37 °C for 60 min and then electrophoresed on 1.8% agarose gels containing 0.5 μg/mL ethidium bromide (EtBr). HAc (0.01%) was used as a negative control.
To determine the concentration required for the interaction of AOD analogs with DNA, a DNA binding assay was performed with various mixing ratios of analog A3 (0.25–1.0 μg/mL) and 100-bp DNA ladder (0.1–0.4 μg), as described above.

[14] = test system: 100-bp DNA ladder and DNA polymerase; assay: Competitive binding between DNA and DNA polymerase; conditions: 1 μg peptide, 0.2 μg 100-bp DNA ladder, DNA polymerase 1.0 μL (5 units/μL), 37 °C, 60 min
Description: To assess the preferential binding ability of the AOD analogs to DNA or DNA polymerase, a competitive binding assay was performed. Briefly, AOD analog was added to a reaction mixture containing DNA or DNA polymerase and incubated for 60 min at 37 °C. […] Piscidin 1 and 0.01% HAc were the positive and negative controls, respectively.

[15] = test system: E. coli DH5α genomic DNA (16S ribosomal gene); assay: DNA amplification (PCR) inhibition assay; format: biochemical, Escherichia coli; conditions: 1.5 µg of each analog, 0.2 µg E. coli DH5α gDNA, 30 cycles
Description: To determine whether AOD analogs target DNA amplification, the ability of the analogs to inhibit DNA amplification was assessed using E. coli DH5α genomic DNA (gDNA). Total gDNA was extracted using the phenol–chloroform method, as described previously. To assess the inhibition of DNA amplification, 1.5 µg AOD analog was added to the polymerase chain reaction (PCR) mixture. The PCR solution consisted of 0.2 µg purified gDNA, 5 µL 10× PCR buffer with MgCl2, 4 µL of each dNTP at 2.5 mM, 0.25 μL Ex Taq polymerase (Takara Bio, Shiga, Japan), 2.0 pmol each of primers 27F (5′-[…]-3′) and 1492R (5′-TACGGCTACCTTGTTACGA-CTT-3′), and up to 50 µL sterile distilled water. The PCR thermal cycling conditions were as follows: initial denaturation at 94 °C for 5 min; 30 cycles of 94 °C for 30 s, 55 °C for 30 s, and 72 °C for 2 min; and a final extension for 10 min at 72 °C. PCR was conducted using a Type 9700 Thermal Cycler (Perkin-Elmer, Norwalk City, CA, USA). The PCR products were confirmed through 1.5% agarose gel electrophoresis with 0.5 μg/mL EtBr. Piscidin 1 was used as a positive control and 0.01% HAc was used as a negative control.

[16] = test system: several microorganisms; conditions: analog peptides from the C-terminus of MGD-1; cited from earlier work
Description: This peptide contains three disulfide bridges linked with six cysteine (Cys) residues, which contribute to its structural stability. For the development of potential AMPs from AOD, the AOD molecule may be inappropriate due to its complex structure containing six Cys residues and long sequence length (38 residues), which complicate the recreation of its structure and increase production costs. In a previou ...

[17] = test system: human red blood cells (RBCs; blood type B); conditions: 3% hematocrit, 3.13–100 μg/mL, 60 min, 37 °C, absorbance 542 nm, triplicate

N=C(N)NCCC[C@@H]1NC(=O)[C@H](CCCNC(=N)N)NC(=O)[C@H](CCCNC(=N)N)NC(=O)[C@H](CCCNC(=N)N)NC(=O)[C@H](Cc2c[nH]c3ccccc23)NC(=O)[C@H](CCCNC(=N)N)NC(=O)[C@H](CCCNC(=N)N)NC(=O)[C@@H](N)CSSC[C@@H](C(=O)O)NC1=O [Analog A3] (H-CRRWRRRRC-OH; disulfide 1-9)
Minimal Effective Concentration [1]: 3.0 µg/mL
Minimal Effective Concentration [2]: 53.7 µg/mL
Minimal Effective Concentration [3]: 3.3 µg/mL
Minimal Effective Concentration [4]: 5.0 µg/mL
Minimal Effective Concentration [5]: 6.8 µg/mL
Minimal Effective Concentration [6]: 1.5 µg/mL
Minimal Effective Concentration [7]: 0.4 µg/mL
Minimal Effective Concentration [8]: 54.0 µg/mL
electrophoretic mobility of V. parahaemolyticus gDNA [9]: inhibited
Minimal Effective Concentration [10]: 6.5 µg/mL
Minimal Effective Concentration [11]: 5.5 µg/mL
Minimal Effective Concentration [12]: 4.2 µg/mL
electrophoretic mobility of the DNA (DNA-binding ability) [13]: inhibited
competitive binding between DNA and DNA polymerase (electrophoretic mobility of DNA) [14]: inhibited
inhibition of DNA amplification (PCR) [15]: partially or completely inhibited

CGGWHRLRC [analog peptide derived from the C-terminus (loop 3) of MGD-1]
antimicrobial activity (in words) [16]: potent antimicrobial activity

CKKWKRKRC [Lys-substituted analog peptide derived from …]
antimicrobial activity (in words) [16]: stronger antibacterial activity than the parent analog peptide

Piscidin 1: α-helical AMP isolated from hybrid striped bass, used as a positive control (FFHHIFRGIVHVGKTIHRLVTG) [reference compound]
Minimal Effective Concentration [1]: 8.0 µg/mL
Minimal Effective Concentration [3]: 9.1 µg/mL
Minimal Effective Concentration [4]: 2.0 µg/mL
Minimal Effective Concentration [5]: 2.3 µg/mL
hemolytic activity [17]: strong hemolysis, even at very low concentrations (from 6.25 μg/mL)
Minimal Effective Concentration [6]: 3.2 µg/mL
Minimal Effective Concentration [7]: 2.3 µg/mL
Minimal Effective Concentration [8]: 11.8 µg/mL
Minimal Effective Concentration [10]: 4.6 µg/mL
Minimal Effective Concentration [11]: 8.6 µg/mL
competitive binding between DNA and DNA polymerase (electrophoretic mobility of DNA) [14]: preferentially binds to DNA polymerase over DNA
inhibition of DNA amplification (PCR) [15]: did not inhibit
